Columns and labels:
[1] = solubility in water, room temperature (23±0.5° C.)
Experimental: After the suspensions were allowed to settle, about 0.020 mL of each supernatant was added to a UV cuvette containing about 2.98 mL of Millipore H2O, and the UV absorption of each solution was measured. The concentration, SAQ, of each compound was determined using Beer's Law and the previously measured molar absorptivities (ε, L mol^−1cm^−1) of each compound in water where A is the absorbance (no units), b is the path length of the cuvette (cm) and c is the concentration (mol L^−1) of each compound in the supernatant. Beer's Law: A=εbc c=A/εb

[2] = solubility in octanol, room temperature
Experimental: Lipid solubility (SLIPID): Each compound (50-100 mg) was stirred at rt in four test tubes containing 2 or 3 mL of isopropyl myristate (IPM) or octanol (OCT) overnight. The saturated suspensions were filtered and about 0.020 mL of each filtrate was diluted with 5 or 10 mL of acetonitrile (ACN). The UV absorbances of the diluted filtrates were measured and the concentrations of each compound in either IPM (SIPM) or OCT (SOCT) were determined using Beer's Law as above but using previously measured ε of each compound in ACN.
The solubilities in the lipid, SOCT or SIPM, could also then be calculated from KLIPID:AQ=SLIPID/SAQ.

[3] = Hydrolysis at pH 10.0 followed by iodine titration; format: physicochemical; conditions: pH 10.0, iodine titration with starch indicator
Experimental: If no free enediol is present, the excess iodine reacts with a starch indicator to give a blue color. During the titration, as iodine solution was added to the prodrug solution, a blue color formed initially but faded as the free enediol was released by hydrolysis of the prodrug and the iodine was reduced to iodide.

| Compound | log SAQ [1] | log SOCT [2] | theoretical amount of ascorbic acid acetonide formed from hydrolysis of the prodrug [3] |
| --- | --- | --- | --- |
| CC(=O)OCOC1=C(OC(C)=O)C(=O)OC1C(O)CO (centres unmarked) [2-AcC1-3-SMC1 ascorbic acid] | 2.05 | 1.66 | – |
| CCC(=O)OCOC1=C(OC(=O)CC)C(=O)OC1C1COC(C)(C)O1 (centres unmarked) [2-ethylcarbonyl-3-ethylcarbonyloxymethyl-5,6-isopropylidene ascorbic acid] | – | – | 95.7% |
| CC(=O)OCOC1=C(OC(C)=O)C(=O)OC1C1COC(C)(C)O1 [2-AcC1-3-SMC1 ascorbic acid acetonide, 5,6-Isopropylidene-3-O-(acetyloxymethyl)-2-O-acetyl-L-ascorbic acid] | 1.56 | 1.55 | – |

Source: patent publication US9550744B2, “Vitamin C prodrugs and uses thereof” (priority 2013, dated 2017)
